pEC50: −log10 of the molar value. Where two headings read alike, the source gives them in different places.
How the values were obtained:
HIV-2 strains [1] = test: HIV-2 strains, luciferase activity in CEM-NKR-CCR5-Luc cells; type: cell-based; conditions: Human immunodeficiency virus 2, HIV-2 ROD; first value in cell
Experimental: (§1) Virus yields were measured in dose-response experiments by either luciferase activity in human T-cells (CEM-NKR-CCR5-Luc), extracellular reverse transcriptase activity in MT-2 cells (T-tropic viruses), or extracellular p24 antigen in PM1 cells (M-tropic viruses).
(§2) Multiple-cycle assays using recombinant viruses or clinical isolates were used to assess MI antiviral activity as described previously ([10]). pNLRepRlucP373S (the P373S change is in the Gag gene and converts an outlier polymorphism in the NL4-3 gene to the prevalent amino acid in the population) plasmids containing SDMs in Gag or gag/pr regions from clinical isolates were transfected into HEK 293T cells, and the supernatant containing recombinant virus was harvested after 4 to 5 days. Virus was used to infect MT-2 cells in the presence of a 3-fold serially diluted compound at a final dimethyl sulfoxide (DMSO) concentration of 1%. The inocula of the reporter viruses were determined based on the luciferase activity detected on day 4 postinfection. […] Virus growth was determined on days 4 to 5 postinfection for reporter variants or days 5 to 11 for the other viruses. The reporter viruses were detected by a luciferase assay according to manufacturer protocols (Brite-Glo luciferase kit [Promega] for CEM-NKR-CCR5-Luc cells and Dual-Luciferase Reporter 1000 assay system [Promega] for the other cells), and luminescence was detected on a Wallac Trilux. The growth of clinical isolates in PBMCs was quantitated by reverse transcriptase activity in a 96-well scintillation proximity assay (SPA). […] Luminescence was detected on a Wallac Trilux programmed for tritium counting with SPA beads in opaque plates. The growth of the reporter-free laboratory M-tropic strains and clinical isolates was monitored by a p24 enzyme-linked immunosorbent assay (ELISA; PerkinElmer Life Sciences, Waltham, MA) performed on culture supernatants.
(§3) Maximal percent inhibition values were calculated as MPI = 100 – (mean signals at the 2 highest concentrations of compound/mean signal of 2 no-drug control wells) × 100.

HIV-1 clinical isolates = test: Inhibition of clinical isolates in PBMCs; type: cell-based; conditions: Human immunodeficiency virus 1, PBMC
Experimental: Human peripheral blood mononuclear cells (PBMCs) were infected with isolates, and virus yields were measured by determining extracellular p24 protein levels (Table 4). […] These isolates were also examined in the NLRepRlucP373S virus by replacement of the gag/pr genes with those from these clinical isolates.
Peripheral blood mononuclear cells (BioReclamation, Westbury, NY) were cultured at 37°C and 5% CO2 in RPMI 1640 medium with 20% fetal bovine serum (Gibco Laboratories), 100 units/mL of penicillin G, 100 units/mL of streptomycin (Gibco Laboratories), and 1 ng/mL of recombinant human interleukin-2 (Invitrogen, Carlsbad, CA). Peripheral blood mononuclear cells were stimulated with 2 μg/mL of phytohemagglutinin (Sigma-Aldrich, St. Louis, MO) for 2 days before infection with HIV-1 clinical isolates.
Multiple-cycle assays using recombinant viruses or clinical isolates were used to assess MI antiviral activity as described previously ([10]). pNLRepRlucP373S (the P373S change is in the Gag gene and converts an outlier polymorphism in the NL4-3 gene to the prevalent amino acid in the population) plasmids containing SDMs in Gag or gag/pr regions from clinical isolates were transfected into HEK 293T cells, and the supernatant containing recombinant virus was harvested after 4 to 5 days. Virus was used to infect MT-2 cells in the presence of a 3-fold serially diluted compound at a final dimethyl sulfoxide (DMSO) concentration of 1%. The inocula of the reporter viruses were determined based on the luciferase activity detected on day 4 postinfection. The MOI (ratio of infectious virions to target cells) of reporter-free laboratory strains and clinical isolates was 0.005, as derived from a tissue culture infectious dose study. Clinical isolates or reporter-free viruses were examined in the reporter CEM-NKR-CCR5-Luc cells or PBMCs at MOIs ranging from 0.005 to 0.01. Each infection started with a drug-free preincubation of the cell-virus mixtures, performed at 37°C and 5% CO2 for either 1 h at 2 times the final cell density (reporter viruses) or 1 h (reporter-free laboratory strains) or 3 h (clinical isolates) using cell pellets in 0.5 mL of medium. After preincubation, cell-virus mixtures were added to compound-containing 96-well plates for a final cell density of either 10,000 (MT-2 cells for reporter viruses), 20,000 (MT-2 and PM1 cells for reporter-free laboratory strains), 200,000 (PBMCs for clinical isolates), or 500,000 (CEM-NKR-CCR5-Luc for reporter-free laboratory strains) cells per well. The CEM-NKR-CCR5-Luc cell assay was performed in the presence of Polybrene (10 μg/mL). Virus growth was determined on days 4 to 5 postinfection for reporter variants or days 5 to 11 for the other viruses. The reporter viruses were detected by a luciferase assay according to manufacturer protocols (Brite-Glo luciferase kit [Promega] for CEM-NKR-CCR5-Luc cells and Dual-Luciferase Reporter 1000 assay system [Promega] for the other cells), and luminescence was detected on a Wallac Trilux. The growth of clinical isolates in PBMCs was quantitated by reverse transcriptase activity in a 96-well scintillation proximity assay (SPA). Twenty microliters of culture supernatants was mixed with 40 μL of reaction cocktail (62.5 mM Tris-HCl [pH 7.8], 100 mM KCl, 0.0625% NP-40, 2.5 mM dithiothreitol [DTT], 6.25 mM MgCl2, 1 mM EGTA, 6.25 μg/mL of poly rA, 2.5 μg/mL of streptavidin SPA beads prebound with biotinylated-dT12-18, and 1 μCi of [^3H]TTP). Mixtures were incubated at 37°C for ∼3 h and quenched with 100 μl of 0.25 M EDTA per well. Luminescence was detected on a Wallac Trilux programmed for tritium counting with SPA beads in opaque plates. The growth of the reporter-free laboratory M-tropic strains and clinical isolates was monitored by a p24 enzyme-linked immunosorbent assay (ELISA; PerkinElmer Life Sciences, Waltham, MA) performed on culture supernatants.

HIV-1 M tropic strains = test: M-tropic laboratory strains, extracellular p24 antigen in PM1 cells; type: cell-based
Experimental: as §1
as §2, with “postinfection. The MOI (ratio of infectious virions to target cells) of reporter-free laboratory strains and clinical isolates was 0.005, as derived from a tissue culture infectious dose study. Clinical isolates or reporter-free viruses were examined in the reporter CEM-NKR-CCR5-Luc cells or PBMCs at MOIs ranging from 0.005 to 0.01. Each infection started with a drug-free preincubation of the cell-virus mixtures, performed at 37°C and 5% CO2 for either 1 h at 2 times the final cell density (reporter viruses) or 1 h (reporter-free laboratory strains) or 3 h (clinical isolates) using cell pellets in 0.5 mL of medium.” for “postinfection.”
as §3

[2] = test system: RepRlucNL4-3GagP373S variants; test: Virus breakthrough in MT-2 cell culture in the presence of compound; type: cell-based, HIV-1; conditions: for Days to virus breakthrough, Expt 1 / Days to virus breakthrough, Expt 2: drug 80 nM
Experimental: The ability of virus to break through and grow in the presence of an inhibitory concentration of a compound in cell culture provides an indication of its resistance barrier. […] Experiments were performed in duplicate at a low or high MOI (0.005 and 0.05) and at a drug concentration of 80 nM with RepRlucP373S WT virus or SDM-containing virus with known Gag polymorphisms (Table 6).
Cultures were incubated at 37°C and 5% CO2 until ∼100% cytopathic effect (CPE) was observed. […] At each passage, 100 μL of culture supernatant was collected and stored at −20°C. When a culture reached 100% CPE, it was terminated, and supernatants were harvested for subsequent virus population sequencing.

HIV-2 strains [3] = test: HIV-2 strains, reverse transcriptase activity in MT-2 cells; type: cell-based
Experimental: as §1
as §2, with “postinfection. The MOI (ratio of infectious virions to target cells) of reporter-free laboratory strains and clinical isolates was 0.005, as derived from a tissue culture infectious dose study. Clinical isolates or reporter-free viruses were examined in the reporter CEM-NKR-CCR5-Luc cells or PBMCs at MOIs ranging from 0.005 to 0.01. Each infection started with a drug-free preincubation of the cell-virus mixtures, performed at 37°C and 5% CO2 for either 1 h at 2 times the final cell density (reporter viruses) or 1 h (reporter-free laboratory strains) or 3 h (clinical isolates) using cell pellets in 0.5 mL of medium.” for “postinfection.”
as §3

C=C(C)[C@@H]1CC[C@]2(NCCN3CCS(=O)(=O)CC3)CC[C@]3(C)[C@H](CC[C@@H]4[C@@]5(C)CC=C(c6ccc(C(=O)O)cc6)C(C)(C)[C@@H]5CC[C@]43C)[C@@H]12 [GSK’795, reference compound]
pEC50 (HIV-2 strains [1]): < 5.52
pEC50 (HIV-1 clinical isolates; read-out: Mean EC50, subtype A 92UG037): 8.70
pEC50 (HIV-1 clinical isolates; read-out: Mean EC50, subtype A 93RW029): 8.22
pEC50 (HIV-1 clinical isolates; read-out: Mean EC50, subtype A 93RW034): 8.70
pEC50 (HIV-1 clinical isolates; read-out: Mean EC50, subtype AE 93TH023): 6.27
pEC50 (HIV-1 clinical isolates; read-out: Mean EC50, subtype AE 93TH053): 7.74
pEC50 (HIV-1 clinical isolates; read-out: Mean EC50, subtype AE CMU010): 7.46
pEC50 (HIV-1 clinical isolates; read-out: Mean EC50, subtype B 92BR003): 8.40
pEC50 (HIV-1 clinical isolates; read-out: Mean EC50, subtype B 92BR018): 6.84
pEC50 (HIV-1 clinical isolates; read-out: Mean EC50, subtype B 93BR009): 8.70
pEC50 (HIV-1 clinical isolates; read-out: Mean EC50, subtype B 93BR013): 8.05
pEC50 (HIV-1 clinical isolates; read-out: Mean EC50, subtype B 93BR017): 8.00
pEC50 (HIV-1 clinical isolates; read-out: Mean EC50, subtype C 93MW960): 5.80
pEC50 (HIV-1 clinical isolates; read-out: Mean EC50, subtype C 97ZA012): 8.40
pEC50 (HIV-1 clinical isolates; read-out: Mean EC50, subtype C 98BR004): 9.00
pEC50 (HIV-1 clinical isolates; read-out: Mean EC50, subtype C 10215-6): 7.89
pEC50 (HIV-1 clinical isolates; read-out: Mean EC50, subtype C 20706-3): 8.40
pEC50 (HIV-1 clinical isolates; read-out: Mean EC50, subtype C MJ4): 8.15
pEC50 (HIV-1 clinical isolates; read-out: mean EC50 toward clinical isolates, panel of HIV-1 clinical isolates, subtypes A, B, C, CRF01_AE): 6.86
pEC50 (HIV-1 M tropic strains; Human immunodeficiency virus 1, PM1, Bal): 8.43
pEC50 (HIV-1 M tropic strains; Human immunodeficiency virus 1, PM1, JRFL): 7.89
Days to virus breakthrough, Expt 1 ([2]; High MOI (0.05), V362I): 7 days
Days to virus breakthrough, Expt 2 ([2]; High MOI (0.05), V362I): 7 days
Days to virus breakthrough, Expt 1 ([2]; High MOI (0.05), V370A): 11 days
Days to virus breakthrough, Expt 2 ([2]; High MOI (0.05), V370A): 11 days
Days to virus breakthrough, Expt 1 ([2]; High MOI (0.05), V370M): 7 days
Days to virus breakthrough, Expt 2 ([2]; High MOI (0.05), V370M): 7 days
Days to virus breakthrough, Expt 1 ([2]; High MOI (0.05), Wild type): 11 days
Days to virus breakthrough, Expt 2 ([2]; High MOI (0.05), Wild type): 14 days
Days to virus breakthrough, Expt 1 ([2]; Low MOI (0.005), V362I): 7 days
Days to virus breakthrough, Expt 2 ([2]; Low MOI (0.005), V362I): 11 days
Days to virus breakthrough, Expt 1 ([2]; Low MOI (0.005), V370A): 11 days
Days to virus breakthrough, Expt 2 ([2]; Low MOI (0.005), V370A): 18 days
Days to virus breakthrough, Expt 1 ([2]; Low MOI (0.005), V370M): 7 days
Days to virus breakthrough, Expt 2 ([2]; Low MOI (0.005), V370M): 11 days
Days to virus breakthrough, Expt 1 ([2]; Low MOI (0.005), Wild type): >46 days
Days to virus breakthrough, Expt 2 ([2]; Low MOI (0.005), Wild type): 14 days
samples exhibiting breakthrough ([2]; low and high MOIs, 80 nM, over the 46-day experiment): 15 of 16
pEC50 (HIV-2 strains [3]; Human immunodeficiency virus 2, MT2, HIV-2 287): 6.12
pEC50 (HIV-2 strains [3]; Human immunodeficiency virus 2, MT2, HIV-2 ROD, second value in cell): 7.77

Source: paper PMC8765437, “GSK3640254 Is a Novel HIV-1 Maturation Inhibitor with an Optimized Virology Profile” (Antimicrobial Agents and Chemotherapy, 2022)
